Source: US20080200492A1, “METHODS FOR THE TREATMENT OF ALCOHOL ABUSE, ADDICTION AND DEPENDENCY” (priority 2006, published 2008)

Legend:
alcohol preferring rats [1] = experiment: Alcohol Preferring Rats, Study A: Chronic Administration (14 days); type: in vivo, rat; settings: 20 mg/kg once a day, gavage
Description: (§1) Adult male selectively-bred alcohol preferring rats were used in this study. The selectively bred alcohol preferring rats are widely used to study the suppressant effects of compounds on voluntary alcohol intake (Faren et al. 2000; Rezvani et al, 1990, 1991, 1992a, 1992b, 1999, 2000, 2002; 2003; Murphy et al, 1988; Overstreet et al., 1992, 1999; Li and McBride, 1995).
(§2) The rats were housed individually under a constant room temperature of 22±1° C. and 12:12 light-dark cycle (7:00-19:00, dark). Animals were fed Agway Prolab Rat/Mouse/Hamster 3000 formula and water ad libitum.
(§3) Alcohol intake was determined using a standard two-bottle choice method (Murphy et al. 1988; McBride et al. 1990; Rezvani et al. 1990, 1991, 1993, 1995, 1997, Rezvani et al., 2007a,b; Rezvani and Grady, 1994). Animals were first given free access to water in a graduated Richter tube for 1 day. Next, they were given access to only a solution of 10% (v/v) ethanol for 3 consecutive days. During this period the animals became accustomed to drinking from Richter tubes and to the taste and pharmacological effects of alcohol. Thereafter, the animals were given free access to both water and a solution of 10% alcohol for 4 consecutive weeks and throughout of the study. The animals continued to have free access to food. Water and alcohol intake were recorded at 6 and 24 hour.
After establishment of a reliable baseline for alcohol, and water intake, the animals were randomly assigned to a treatment regimen. The animals were administered once a day, via gavage, either vehicle (0.5% methylcellulose) or compound of formula (I-A) (at 30 mg/kg) or naltrexone (at 20 mg/kg) for 14 consecutive days. A group of 6-7 animals was used for each treatment. Alcohol and water intake was recorded at 6 hrs and 24 hrs after administration.
(§4) The results are presented as a means ±SEM. Alcohol intake (g/kg) was calculated by multiplying the volume of alcohol consumed in ml by 10% and 0.7893 (ethanol density)/body weight in kg. Alcohol preference, expressed as percentage was calculated as (volume of alcohol consumed in ml/total fluid intake in ml)×100 (Rezvani and Grady, 1994; Rezvani et al., 2007a). Statistical differences between drug-treated and control groups was determined by using ANOVA and Tukey Student's t test for multiple comparison.
The results from Study A provide a measure of whether or not the animals develop tolerance to the suppressant effects of the test compound following a chronic treatment. In Tables 5-8 below, the abbreviation “(I-A)” stands for the compound of formula (I-A), the abbreviation “Naltx” stands for naltrexone, and the abbreviation “EtOH” stands for ethanol.

alcohol preferring rats [2] = experiment: Alcohol Preferring Rats, Study B: Post-Deprivation Effect; type: in vivo, rat; settings: 20 mg/kg, 45 min before re-exposure to alcohol after 72 hours deprivation
Description: as §1, §2, §3
Following Study A, the rats were maintained on alcohol for 15 days without drug. On day 16 post-gavage, rats were put on food and water only for 72 hours. On the next day, 45 min before re-exposure to alcohol, the rats were treated with vehicle (0.5% methylcellulose), naltrexone (at 20 mg/kg) or compound of formula (I-A) (at 30-mg/kg). Alcohol intake was then measured at 1, 3, 6 and 24 hr after exposure.
as §4, with “means.” for “means ±SEM.”
The results from Study B provide a measure of the effectiveness of the test compound to suppress post-deprivation-induced craving for alcohol.

O=C1CC[C@@]2(O)[C@H]3Cc4ccc(O)c5c4[C@@]2(CCN3CC2CC2)[C@H]1O5 [Naltrexone, naltrexone, reference compound] was tested, and the “Alcohol Preference” value (alcohol preferring rats [1]; Day 1, 6 Hour Intake) was 64 % EtOH, the “Alcohol Preference” value (alcohol preferring rats [1]; Day 1, 24 Hour Intake) was 65 % EtOH and the “Alcohol Preference” value (alcohol preferring rats [1]; Day 2, 6 Hour Intake) was 67 % EtOH. The “Alcohol Preference” value (alcohol preferring rats [1]; Day 2, 24 Hour Intake) was 68 % EtOH, the “Alcohol Preference” value (alcohol preferring rats [1]; Day 3, 6 Hour Intake) was 70 % EtOH and the “Alcohol Preference” value (alcohol preferring rats [1]; Day 3, 24 Hour Intake) was 68 % EtOH. The “Alcohol Preference” value (alcohol preferring rats [1]; Day 4, 6 Hour Intake) was 80 % EtOH, the “Alcohol Preference” value (alcohol preferring rats [1]; Day 4, 24 Hour Intake) was 77 % EtOH and the “Alcohol Preference” value (alcohol preferring rats [1]; Day 5, 6 Hour Intake) was 81 % EtOH. For the same compound, the “Alcohol Preference” value (alcohol preferring rats [1]; Day 5, 24 Hour Intake) was 79 % EtOH, the “Alcohol Preference” value (alcohol preferring rats [1]; Day 6, 6 Hour Intake) was 86 % EtOH and the “Alcohol Preference” value (alcohol preferring rats [1]; Day 6, 24 Hour Intake) was 72 % EtOH. For the same compound, the “Alcohol Preference” value (alcohol preferring rats [1]; Day 7, 6 Hour Intake) was 88 % EtOH, the “Alcohol Preference” value (alcohol preferring rats [1]; Day 7, 24 Hour Intake) was 84 % EtOH and the “Alcohol Preference” value (alcohol preferring rats [1]; Day 8, 6 Hour Intake) was 88 % EtOH. The “Alcohol Preference” value (alcohol preferring rats [1]; Day 8, 24 Hour Intake) was 85 % EtOH, the “Alcohol Preference” value (alcohol preferring rats [1]; Day 9, 6 Hour Intake) was 89 % EtOH and the “Alcohol Preference” value (alcohol preferring rats [1]; Day 9, 24 Hour Intake) was 89 % EtOH. For the same compound, the “Alcohol Preference” value (alcohol preferring rats [1]; Day 10, 6 Hour Intake) was 91 % EtOH, the “Alcohol Preference” value (alcohol preferring rats [1]; Day 10, 24 Hour Intake) was 85 % EtOH and the “Alcohol Preference” value (alcohol preferring rats [1]; Day 11, 6 Hour Intake) was 99 % EtOH. The “Alcohol Preference” value (alcohol preferring rats [1]; Day 11, 24 Hour Intake) was 99 % EtOH, the “Alcohol Preference” value (alcohol preferring rats [1]; Day 12, 6 Hour Intake) was 95 % EtOH and the “Alcohol Preference” value (alcohol preferring rats [1]; Day 12, 24 Hour Intake) was 97 % EtOH. For the same compound, the “Alcohol Preference” value (alcohol preferring rats [1]; Day 13, 6 Hour Intake) was 90 % EtOH, the “Alcohol Preference” value (alcohol preferring rats [1]; Day 13, 24 Hour Intake) was 95 % EtOH and the “Alcohol Preference” value (alcohol preferring rats [1]; Day 14, 6 Hour Intake) was 92 % EtOH. The “Alcohol Preference” value (alcohol preferring rats [1]; Day 14, 24 Hour Intake) was 89 % EtOH, the “% EtOH” value (alcohol preferring rats [2]; 1 Hour Post Dosing) was 95% and the Alcohol (alcohol preferring rats [2]; 1 Hour Post Dosing) was 0.48 g/kg. The “% EtOH” value (alcohol preferring rats [2]; 3 Hours Post Dosing) was 94%, the Alcohol (alcohol preferring rats [2]; 3 Hours Post Dosing) was 1.15 g/kg and the “% EtOH” value (alcohol preferring rats [2]; 6 Hours Post Dosing) was 87%. For the same compound, the Alcohol (alcohol preferring rats [2]; 6 Hours Post Dosing) was 2.35 g/kg, the “% EtOH” value (alcohol preferring rats [2]; 24 Hours Post Dosing) was 87% and the Alcohol (alcohol preferring rats [2]; 24 Hours Post Dosing) was 6.47 g/kg.
